# Data: PubChem BioAssay (NCI)
#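 In this assay, cells in 96-well plates receive the compound at five concentrations for 48 hours. Endpoints are linearly interpolated between the surrounding concentrations. Here, GI50 denotes the concentration required for 50% inhibition of growth. TGI denotes the concentration required for complete inhibition of growth.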
# Tests used:
# Experiment in all cases: NCI-60 cell line screen, 48 h
# SNB-19 CNS = test system: SNB-19 CNS
# UACC-62 melanoma = test system: UACC-62 melanoma
# NCI/ADR-RES ovarian = test system: NCI/ADR-RES ovarian
# UO-31 renal = test system: UO-31 renal
# OVCAR-8 ovarian = test system: OVCAR-8 ovarian
# HS 578T breast = test system: HS 578T breast
# HOP-92 NSCLC = test system: HOP-92 NSCLC
# EKVX NSCLC = test system: EKVX NSCLC
SMILES,GI50 (SNB-19 CNS) [µM],TGI (SNB-19 CNS) [µM],GI50 (UACC-62 melanoma) [µM],TGI (UACC-62 melanoma) [µM],GI50 (NCI/ADR-RES ovarian) [µM],TGI (NCI/ADR-RES ovarian) [µM],GI50 (UO-31 renal) [µM],TGI (UO-31 renal) [µM],GI50 (OVCAR-8 ovarian) [µM],TGI (OVCAR-8 ovarian) [µM],GI50 (HS 578T breast) [µM],TGI (HS 578T breast) [µM],GI50 (HOP-92 NSCLC) [µM],TGI (HOP-92 NSCLC) [µM],GI50 (EKVX NSCLC) [µM],TGI (EKVX NSCLC) [µM]
Nc1ccccc1C#C/C=C\C#Cc1ccccc1OC(F)(F)F,2.55,9.72,5.94,21,2.82,11.1,4.63,22.8,6.7,47.2,4.08,22,9.57,26.4,9.16,58.7
O=[N+]([O-])c1cccc(-c2csc(NNC3=NC/C(=C/c4ccc5c(c4)OCO5)S3)n2)c1,,64.8,,56.5,,53,,85.6,,47.2,,69.7,,43.7,,41
Cc1ccc2c(C)c3c(ccc4ccccc43)c[n+]2c1,2.84,24.7,8.88,22,> 100,> 100,27.8,> 100,6.35,25.4,4.37,22.3,6.28,35.2,0.775,> 100
Cn1cc(C2=C(c3c4n(c5ccccc35)CCCCC4)C(=O)NC2=O)c2ccccc21,> 18.1,> 25,1.27,> 25,2.17,> 25,5.75,> 25,10.7,> 25,1.7,19.8,1.48,> 25,,
NS(=O)(=O)c1ccc2c(c1)OCCOCCOCCOCCO2,,> 100,,> 100,,,,> 100,,> 100,,> 100,,,,> 100
OC1CSSC1Cn1cnc2c(Nc3ccc(OCc4cccc(F)c4)c(Cl)c3)ncnc21 (centres undefined),2.14,7.22,0.971,2.71,3.26,12.3,1.45,6.55,3.71,12,5.28,15,8.97,23,0.603,2.35
COc1cc2c(cc1OCCCCN1CCN(CC(=O)Nc3ccc(Cl)cc3C(=O)c3ccccc3Cl)CC1)N=CC1CCCN1C2=O (centres undefined),0.36,1.15,0.186,0.355,,,0.267,0.817,0.327,1.09,,,0.0982,0.298,0.375,1.07
CCOC(=O)Cn1c(C(F)(F)F)nc2nc(Cl)c(Cl)nc21,,> 96.2,,> 78.4,,> 100,,10.9,,> 100,,87.2,,70.3,,29.4
CCOC(=O)/C=C/CC(C)(C)CCOC(C)=O,,> 10,,> 10,,> 10,,> 10,,> 10,,> 10,,> 10,,
CC1CCc2nc[nH]c(=O)c21 (centres undefined),> 100,> 100,> 100,> 100,> 100,> 100,> 100,> 100,> 100,> 100,> 100,> 100,> 100,> 100,,
COc1cnc2c(c1)C(=O)c1c-2n(CCCN2CCOCC2)c(=O)c2cc(F)ccc12,0.264,7,0.235,0.926,0.299,> 100,,,0.246,> 100,1.5,23.3,0.858,6.86,0.482,> 100
O=C(Nc1ccc(F)cc1)Nc1ccc(Cl)c([N+](=O)[O-])c1,3.54,14.3,3.04,13.2,2.6,10.3,2.69,10.6,2.98,15.1,4.02,24.2,2.03,6.12,2.79,11
O=C(Nc1ccc(-n2ccc3c(NC(=O)c4ccccc4)nccc32)cc1)c1ccc(Cl)c(C(F)(F)F)c1,1.18,13.1,0.576,9.79,0.96,15.2,2.86,> 50,0.528,15.9,4.88,20,3.42,> 42.2,9.59,> 50
C=CCO[C@H]1CO[C@H]2[C@@H]1OC[C@@H]2Oc1ccc(Nc2ccnc(Nc3ccc(O[C@H]4CO[C@H]5[C@@H]4OC[C@@H]5OCC=C)c(Cl)c3)n2)cc1Cl,2,3.73,1.81,3.32,1.78,3.85,1.58,2.93,1.93,5.92,,,1.66,3.3,1.69,3.15
COC(=O)CC[N+]1=CCC(c2ccccc2)(c2ccccc2)O1,,> 100,,> 100,,,,> 100,,> 100,,> 100,,> 100,,> 100
Cc1ccc(NC(=O)Nc2ccc(-c3cccnc3)cc2N2CCC(CO)CC2)cc1,2.64,> 100,2.3,6.18,3.62,> 100,,,6.43,> 100,1.7,6.4,2.5,6.42,3.42,> 100
COC1/C=C/OC2(C)Oc3c(C)c(O)c4c(O)c(c(/C=N/Nc5ccc([N+](=O)[O-])cc5[N+](=O)[O-])c(O)c4c3C2=O)NC(=O)C(C)=C/C=C/C(C)C(O)C(C)C(O)C(C)C(OC(C)=O)C1C (centres undefined),3.92,18.1,1.37,5.08,22.2,> 50,8.71,23.6,1.41,3.93,0.97,3.59,0.885,2.04,4.75,> 50
Cc1cc(-c2nc(C(=O)Nc3cc4oc(N5CCOCC5)nc4nc3N3CC[C@@H](O)C3)co2)ccn1,78.8,> 100,57,> 100,> 100,> 100,14.9,68.7,38.7,> 100,22.2,> 100,,,> 100,> 100

SMILES,GI50 (SNB-19 CNS) [µM],TGI (SNB-19 CNS) [µM],GI50 (UACC-62 melanoma) [µM],TGI (UACC-62 melanoma) [µM],GI50 (NCI/ADR-RES ovarian) [µM],TGI (NCI/ADR-RES ovarian) [µM],GI50 (UO-31 renal) [µM],TGI (UO-31 renal) [µM],GI50 (OVCAR-8 ovarian) [µM],TGI (OVCAR-8 ovarian) [µM],GI50 (HS 578T breast) [µM],TGI (HS 578T breast) [µM],GI50 (HOP-92 NSCLC) [µM],TGI (HOP-92 NSCLC) [µM],GI50 (EKVX NSCLC) [µM],TGI (EKVX NSCLC) [µM]
C=CC(=O)Nc1cc(Nc2ncc(C(=O)OC(C)C)c(-c3cn(C)c4ccccc34)n2)c(OC)cc1N(C)CCN(C)C,6.8,22.4,2.34,7,2.3,17.7,0.442,12.9,4.85,25,6.43,21.5,2.02,10.1,0.0181,13.6
CCC(=O)[C@H](C)[C@@H](OC(=O)[C@H](C)CC)[C@H](C)[C@H]1OC(CC)=C(C)C(=O)[C@@H]1C,42.6,> 100,13.7,27.7,18.6,55,24,66.6,42.4,> 100,30.3,89.3,23.1,62.1,23.9,73.9
OCCN(CCO)c1ncnc2c1ncn2Cc1ccc(CCl)cc1,19.9,41.2,18,33.5,24.7,74.1,14.9,31,15.4,31.7,16,36.9,16.4,31.7,16.6,31.8
Cc1ccc(CN2CCC(C(=O)Nc3ccc(-c4cc5ccccc5[nH]4)cc3)CC2)o1,> 100,> 100,45.5,> 100,> 100,> 100,> 100,> 100,> 100,> 100,26.3,> 100,2.71,> 100,> 100,> 100
COc1cccc(C2c3cc4c(cc3OC(C)(N3CCCC3)C2C)OCO4)c1O (centres undefined),,> 100,,46.8,,11.8,,56.4,,40,,5.59,,71.4,,> 91.6
c1ccc(-c2nc(-c3ccccc3SSc3ccccc3-c3nc(-c4ccccc4)nn3-c3ccccc3)n(-c3ccccc3)n2)cc1,,> 100,,> 100,,> 100,,> 100,,> 100,,> 100,,> 100,,> 100
Nc1c(C(=O)c2cccc(CCS(N)(=O)=O)c2)cnn1-c1ccc(F)cc1,> 25,> 25,> 25,> 25,> 25,> 25,> 25,> 25,> 25,> 25,> 25,> 25,> 25,> 25,,
Cc1nc2sccn2c1-c1csc(Nc2ccccc2Cl)n1,10.3,> 100,3.05,23.3,2.61,14.5,3.21,33.6,6.05,45.2,6.92,> 100,0.798,7.08,,
COc1ccc2c(c1)sc1nc(-c3ccccc3)c(-c3cccc4ccccc34)n12,0.589,> 100,0.414,> 100,0.47,> 100,1.34,> 100,0.771,> 100,,> 100,,,1.61,> 100
Clc1ccccc1C(SCc1ccccc1)SCc1ccccc1,,> 100,,> 100,,> 100,,> 100,,> 100,,,,> 100,,> 100
COC(CCC[N+](C)(C)C)CC[N+](C)(C)C (centres undefined),,> 100,,> 100,,> 100,,> 100,,> 100,,,,,,> 100
CN1CCCCC1CCN1c2ccccc2Sc2ccc(Cl)cc21 (centres undefined),6.7,21.5,2.16,5.61,2.89,7.62,2.92,12.7,3.83,12.5,2.25,8.79,1.35,5.18,,
O=C(CCNC12CC3CC(CC(C3)C1)C2)c1ccccc1,,> 100,,39.6,,59.8,,77.6,,45,,,,64.2,,
O=C1NC(=NCCc2cccc(F)c2)S/C1=C\c1ccc2ncccc2c1,14.1,> 25,5.41,> 25,10.8,> 25,16.7,> 25,12.8,> 25,10.6,> 25,> 25,> 25,,
C[N+](C)(C)CC(=O)N/N=C(/CC(=O)CC(C1=C(O)c2ccccc2OC1)c1ccccc1)C(=O)Nc1cccc(Cl)c1 (centres undefined),,,,> 100,,> 100,,> 100,,> 100,,,,> 100,,> 100
COc1cc2c(c(OC)c1OC)-c1ccc(NNC(N)=S)c(=O)cc1[C@@H](NC(C)=O)CC2,0.558,> 100,0.666,> 100,19.4,> 100,> 25.9,> 100,0.863,> 100,,> 100,,,3.67,> 100
FC(F)(F)c1cccc(Nc2nc(-c3ccccc3)nc3ncccc23)c1,7.68,37.3,5.84,26.2,4.07,23.5,4.86,21.8,3.74,18.2,3.49,18.1,4.65,18,,
